Measured values taken from ChEMBL document CHEMBL2321781, “Synthesis and in vitro antimalarial testing of neocryptolepines: SAR study for improved activity by introduction and modifications of side chains at C2 and C11 on indolo[2,3-b]quinolines” (J Med Chem, 2013).

System: not listed separately
Assay: Selectivity index, ratio of IC50 for rat L6 cells to IC50 for chloroquine-resistant Plasmodium falciparum K1
Assay type: toxicity, cell-based
Details: read-out: Ratio IC50

| Structure (SMILES) | selectivity ratio |
| --- | --- |
| Cn1c2nc3ccccc3c-2c(NCCCN2C(=O)c3ccccc3SC2c2ccc(Cl)cc2)c2ccccc21 (configuration not stated) | 51.6 |
| Cn1c2nc3ccccc3c-2c(NCCCNC(=O)Nc2ccccc2)c2cc(Br)ccc21 | 238 |
| CN(C)c1ccc(C2SCC(=O)N2CCCNc2c3c4ccccc4nc-3n(C)c3ccccc23)cc1 (configuration not stated) | 24.8 |
| Cn1c2nc3ccccc3c-2c(NCCCN2C(=O)CSC2c2ccc(Cl)cc2)c2ccccc21 (configuration not stated) | 24.2 |
| Cn1c2nc3ccccc3c-2c(NCCCNC(=O)Nc2ccccc2)c2cc([N+](=O)[O-])ccc21 | 91.4 |
| Cn1c2nc3ccccc3c-2c(NCCCN2C(=O)CCSC2c2ccc(Cl)cc2)c2ccccc21 (configuration not stated) | 86.6 |
| Cn1c2nc3ccccc3c-2c(NCCCNC(=O)Nc2ccccc2)c2ccccc21 | 132 |
| Cn1c2nc3ccccc3c-2c(Cl)c2ccccc21 [11-CHLORONEOCRYPTOLEPINE] | 0.7 |
| Cn1c2nc3ccccc3c-2c(NCCCNS(=O)(=O)c2ccccc2)c2ccccc21 | 0.5 |
| Cn1c2nc3ccccc3c-2c(NCCCN2C(=O)CCSC2c2ccc(F)cc2)c2ccccc21 (configuration not stated) | 24.3 |
| Cn1c2nc3ccccc3c-2c(NCCCNC(=O)Nc2ccccc2)c2cc(F)ccc21 | 11.4 |
| COc1ccc2c(c1)c(NCCCNC(=O)Nc1ccccc1)c1c3ccccc3nc-1n2C | 1240 |
| Cn1c2nc3ccccc3c-2c(NCCCNC(=O)Nc2ccccc2)c2cc(C(F)(F)F)ccc21 | 26.3 |
| Cn1c2nc3ccccc3c-2c(NCCCNC(=S)Nc2ccccc2)c2ccccc21 | 11 |
| Cn1c2nc3ccccc3c-2cc2ccccc21 [NEOCRYPTOLEPINE] | 1.9 |

System: Mus musculus
Assay: Toxicity in Plasmodium berghei ANKA infected Swiss mouse assessed as weight loss at 50 mg/kg, ip qd for 4 days
Assay type: organism-based
Set-up: dose 50 mg/kg, route intraperitoneal
Details: in vivo, 96 h

| Structure (SMILES) | Activity |
| --- | --- |
| Cn1c2nc3ccccc3c-2c(NCCCNC(=O)Nc2ccccc2)c2ccccc21 | Toxic |
| Cn1c2nc3ccccc3c-2c(NCCCNC(=S)Nc2ccccc2)c2ccccc21 | Toxic |

System: Plasmodium falciparum
Assay: Antimalarial activity against chloroquine-resistant Plasmodium falciparum K1 after 72 hrs by [3H]hypoxanthine incorporation assay
Assay type: functional, organism-based
Details: not given

| Structure (SMILES) | IC50 |
| --- | --- |
| Cn1c2nc3ccccc3c-2c(NCCCN2C(=O)c3ccccc3SC2c2ccc(Cl)cc2)c2ccccc21 (configuration not stated) | 0.0213 µM |
| Cn1c2nc3ccccc3c-2c(NCCCNC(=O)Nc2ccccc2)c2cc(Br)ccc21 | 0.0119 µM |
| CN(C)c1ccc(C2SCC(=O)N2CCCNc2c3c4ccccc4nc-3n(C)c3ccccc23)cc1 (configuration not stated) | 0.143 µM |
| Cn1c2nc3ccccc3c-2c(NCCCN2C(=O)CSC2c2ccc(Cl)cc2)c2ccccc21 (configuration not stated) | 0.144 µM |
| Cn1c2nc3ccccc3c-2c(NCCCNC(=O)Nc2ccccc2)c2cc([N+](=O)[O-])ccc21 | 0.0299 µM |
| Cn1c2nc3ccccc3c-2c(NCCCN2C(=O)CCSC2c2ccc(Cl)cc2)c2ccccc21 (configuration not stated) | 0.0388 µM |
| Cn1c2nc3ccccc3c-2c(NCCCNC(=O)Nc2ccccc2)c2ccccc21 | 0.0094 µM |
| Cn1c2nc3ccccc3c-2c(Cl)c2ccccc21 [11-CHLORONEOCRYPTOLEPINE] | 2 µM |
| Cn1c2nc3ccccc3c-2c(NCCCNS(=O)(=O)c2ccccc2)c2ccccc21 | 0.124 µM |
| Cn1c2nc3ccccc3c-2c(NCCCN2C(=O)CCSC2c2ccc(F)cc2)c2ccccc21 (configuration not stated) | 0.112 µM |
| Cn1c2nc3ccccc3c-2c(NCCCNC(=O)Nc2ccccc2)c2cc(F)ccc21 | 0.313 µM |
| COc1ccc2c(c1)c(NCCCNC(=O)Nc1ccccc1)c1c3ccccc3nc-1n2C | 0.0022 µM |
| Cn1c2nc3ccccc3c-2c(NCCCNC(=O)Nc2ccccc2)c2cc(C(F)(F)F)ccc21 | 0.0488 µM |
| Cn1c2nc3ccccc3c-2c(NCCCNC(=S)Nc2ccccc2)c2ccccc21 | 0.112 µM |
| Cn1c2nc3ccccc3c-2cc2ccccc21 [NEOCRYPTOLEPINE] | 1.7 µM |

System: Leishmania donovani
Assay: Antiparasitic activity against Leishmania donovani MHOM/ET/67/L82 axenic amastigotes after 70 hrs by Alamar blue assay
Assay type: functional, organism-based
Details: MHOM/ET/67/L82, 70 h

| Structure (SMILES) | IC50 |
| --- | --- |
| Cn1c2nc3ccccc3c-2c(NCCCN2C(=O)c3ccccc3SC2c2ccc(Cl)cc2)c2ccccc21 (configuration not stated) | 9.75 µM |
| CN(C)c1ccc(C2SCC(=O)N2CCCNc2c3c4ccccc4nc-3n(C)c3ccccc23)cc1 (configuration not stated) | 26.1 µM |
| Cn1c2nc3ccccc3c-2c(NCCCN2C(=O)CCSC2c2ccc(Cl)cc2)c2ccccc21 (configuration not stated) | 13 µM |
| Cn1c2nc3ccccc3c-2c(NCCCNC(=O)Nc2ccccc2)c2ccccc21 | 97.5 µM |
| Cn1c2nc3ccccc3c-2c(NCCCNS(=O)(=O)c2ccccc2)c2ccccc21 | 58 µM |
| Cn1c2nc3ccccc3c-2c(NCCCNC(=S)Nc2ccccc2)c2ccccc21 | 79.2 µM |

System: Trypanosoma brucei rhodesiense
Assay: Antiparasitic activity against Trypanosoma brucei rhodesiense STIB900 bloodstream forms incubated for 70 hrs by Alamar blue assay
Assay type: functional, organism-based
Details: STIB900, 70 h

| Structure (SMILES) | IC50 |
| --- | --- |
| Cn1c2nc3ccccc3c-2c(NCCCN2C(=O)c3ccccc3SC2c2ccc(Cl)cc2)c2ccccc21 (configuration not stated) | 0.868 µM |
| CN(C)c1ccc(C2SCC(=O)N2CCCNc2c3c4ccccc4nc-3n(C)c3ccccc23)cc1 (configuration not stated) | 1.37 µM |
| Cn1c2nc3ccccc3c-2c(NCCCN2C(=O)CCSC2c2ccc(Cl)cc2)c2ccccc21 (configuration not stated) | 0.547 µM |
| Cn1c2nc3ccccc3c-2c(NCCCNC(=O)Nc2ccccc2)c2ccccc21 | 0.607 µM |
| Cn1c2nc3ccccc3c-2c(NCCCNS(=O)(=O)c2ccccc2)c2ccccc21 | 0.164 µM |
| Cn1c2nc3ccccc3c-2c(NCCCNC(=S)Nc2ccccc2)c2ccccc21 | 0.589 µM |

System: not listed separately
Assay: Toxicity against rat L6 cells after 72 hrs by Alamar blue assay
Assay type: cell-based
Details: not given

| Structure (SMILES) | IC50 at 72 h |
| --- | --- |
| Cn1c2nc3ccccc3c-2c(NCCCN2C(=O)c3ccccc3SC2c2ccc(Cl)cc2)c2ccccc21 (configuration not stated) | 1.1 µM |
| Cn1c2nc3ccccc3c-2c(NCCCNC(=O)Nc2ccccc2)c2cc(Br)ccc21 | 2.83 µM |
| CN(C)c1ccc(C2SCC(=O)N2CCCNc2c3c4ccccc4nc-3n(C)c3ccccc23)cc1 (configuration not stated) | 3.55 µM |
| Cn1c2nc3ccccc3c-2c(NCCCN2C(=O)CSC2c2ccc(Cl)cc2)c2ccccc21 (configuration not stated) | 3.47 µM |
| Cn1c2nc3ccccc3c-2c(NCCCNC(=O)Nc2ccccc2)c2cc([N+](=O)[O-])ccc21 | 2.73 µM |
| Cn1c2nc3ccccc3c-2c(NCCCN2C(=O)CCSC2c2ccc(Cl)cc2)c2ccccc21 (configuration not stated) | 3.36 µM |
| Cn1c2nc3ccccc3c-2c(NCCCNC(=O)Nc2ccccc2)c2ccccc21 | 1.24 µM |
| Cn1c2nc3ccccc3c-2c(Cl)c2ccccc21 [11-CHLORONEOCRYPTOLEPINE] | 1.46 µM |
| Cn1c2nc3ccccc3c-2c(NCCCNS(=O)(=O)c2ccccc2)c2ccccc21 | 0.0652 µM |
| Cn1c2nc3ccccc3c-2c(NCCCN2C(=O)CCSC2c2ccc(F)cc2)c2ccccc21 (configuration not stated) | 2.73 µM |
| Cn1c2nc3ccccc3c-2c(NCCCNC(=O)Nc2ccccc2)c2cc(F)ccc21 | 3.56 µM |
| COc1ccc2c(c1)c(NCCCNC(=O)Nc1ccccc1)c1c3ccccc3nc-1n2C | 2.73 µM |
| Cn1c2nc3ccccc3c-2c(NCCCNC(=O)Nc2ccccc2)c2cc(C(F)(F)F)ccc21 | 1.28 µM |
| Cn1c2nc3ccccc3c-2c(NCCCNC(=S)Nc2ccccc2)c2ccccc21 | 1.23 µM |
| Cn1c2nc3ccccc3c-2cc2ccccc21 [NEOCRYPTOLEPINE] | 3.19 µM |

System: Trypanosoma cruzi
Assay: Antiparasitic activity against Trypanosoma cruzi Tulahuen C2C4 expressing beta-galactosidase infected in rat L6 cells after 96 hrs
Assay type: functional, organism-based
Details: Tulahuen C2C4, L6, 96 h

| Structure (SMILES) | IC50 |
| --- | --- |
| Cn1c2nc3ccccc3c-2c(NCCCN2C(=O)c3ccccc3SC2c2ccc(Cl)cc2)c2ccccc21 (configuration not stated) | 2.36 µM |
| CN(C)c1ccc(C2SCC(=O)N2CCCNc2c3c4ccccc4nc-3n(C)c3ccccc23)cc1 (configuration not stated) | 2.73 µM |
| Cn1c2nc3ccccc3c-2c(NCCCN2C(=O)CCSC2c2ccc(Cl)cc2)c2ccccc21 (configuration not stated) | 3.18 µM |
| Cn1c2nc3ccccc3c-2c(NCCCNC(=O)Nc2ccccc2)c2ccccc21 | 10.6 µM |
| Cn1c2nc3ccccc3c-2c(NCCCNS(=O)(=O)c2ccccc2)c2ccccc21 | 1.6 µM |
| Cn1c2nc3ccccc3c-2c(NCCCNC(=S)Nc2ccccc2)c2ccccc21 | 6.12 µM |

System: Plasmodium falciparum
Assay: microbe, parasite or virus in culture
Details: NF54
Description: Antimalarial activity against chloroquine-sensitive Plasmodium falciparum NF54 after 72 hrs by [3H]hypoxanthine incorporation assay

| Structure (SMILES) | IC50 |
| --- | --- |
| Cn1c2nc3ccccc3c-2c(NCCCN2C(=O)c3ccccc3SC2c2ccc(Cl)cc2)c2ccccc21 (configuration not stated) | 0.0266 µM |
| Cn1c2nc3ccccc3c-2c(NCCCNC(=O)Nc2ccccc2)c2cc(Br)ccc21 | 0.004 µM |
| CN(C)c1ccc(C2SCC(=O)N2CCCNc2c3c4ccccc4nc-3n(C)c3ccccc23)cc1 (configuration not stated) | 0.0549 µM |
| Cn1c2nc3ccccc3c-2c(NCCCN2C(=O)CSC2c2ccc(Cl)cc2)c2ccccc21 (configuration not stated) | 0.0639 µM |
| Cn1c2nc3ccccc3c-2c(NCCCNC(=O)Nc2ccccc2)c2cc([N+](=O)[O-])ccc21 | 0.0021 µM |
| Cn1c2nc3ccccc3c-2c(NCCCN2C(=O)CCSC2c2ccc(Cl)cc2)c2ccccc21 (configuration not stated) | 0.0524 µM |
| Cn1c2nc3ccccc3c-2c(NCCCNC(=O)Nc2ccccc2)c2ccccc21 | 0.0213 µM |
| Cn1c2nc3ccccc3c-2c(Cl)c2ccccc21 [11-CHLORONEOCRYPTOLEPINE] | 2.06 µM |
| Cn1c2nc3ccccc3c-2c(NCCCNS(=O)(=O)c2ccccc2)c2ccccc21 | 0.063 µM |
| Cn1c2nc3ccccc3c-2c(NCCCN2C(=O)CCSC2c2ccc(F)cc2)c2ccccc21 (configuration not stated) | 0.0381 µM |
| Cn1c2nc3ccccc3c-2c(NCCCNC(=O)Nc2ccccc2)c2cc(F)ccc21 | 0.0249 µM |
| COc1ccc2c(c1)c(NCCCNC(=O)Nc1ccccc1)c1c3ccccc3nc-1n2C | 0.0044 µM |
| Cn1c2nc3ccccc3c-2c(NCCCNC(=O)Nc2ccccc2)c2cc(C(F)(F)F)ccc21 | 0.0041 µM |
| Cn1c2nc3ccccc3c-2c(NCCCNC(=S)Nc2ccccc2)c2ccccc21 | 0.0091 µM |
| Cn1c2nc3ccccc3c-2cc2ccccc21 [NEOCRYPTOLEPINE] | 1.58 µM |

System: Plasmodium berghei
Assay: Antimalarial activity against Plasmodium berghei ANKA infected in Swiss mouse assessed as reduction parasitaemia at 50 mg/kg, ip qd for 4 days measured 24 hrs after last treatment
Assay type: functional
Set-up: scale not given: the % may be the effect or the level left
Details: route intraperitoneal

| Structure (SMILES) | Activity |
| --- | --- |
| Cn1c2nc3ccccc3c-2c(NCCCNC(=O)Nc2ccccc2)c2ccccc21 | 22.1% |
| Cn1c2nc3ccccc3c-2c(NCCCNC(=S)Nc2ccccc2)c2ccccc21 | 15.4% |

System: not listed separately
Assay: Selectivity index, ratio of IC50 for rat L6 cells to IC50 for chloroquine-sensitive Plasmodium falciparum NF54
Assay type: toxicity, cell-based
Details: read-out: Ratio IC50

| Structure (SMILES) | selectivity ratio |
| --- | --- |
| Cn1c2nc3ccccc3c-2c(NCCCN2C(=O)c3ccccc3SC2c2ccc(Cl)cc2)c2ccccc21 (configuration not stated) | 41.3 |
| Cn1c2nc3ccccc3c-2c(NCCCNC(=O)Nc2ccccc2)c2cc(Br)ccc21 | 706 |
| CN(C)c1ccc(C2SCC(=O)N2CCCNc2c3c4ccccc4nc-3n(C)c3ccccc23)cc1 (configuration not stated) | 64.7 |
| Cn1c2nc3ccccc3c-2c(NCCCN2C(=O)CSC2c2ccc(Cl)cc2)c2ccccc21 (configuration not stated) | 54.4 |
| Cn1c2nc3ccccc3c-2c(NCCCNC(=O)Nc2ccccc2)c2cc([N+](=O)[O-])ccc21 | 1300 |
| Cn1c2nc3ccccc3c-2c(NCCCN2C(=O)CCSC2c2ccc(Cl)cc2)c2ccccc21 (configuration not stated) | 64.1 |
| Cn1c2nc3ccccc3c-2c(NCCCNC(=O)Nc2ccccc2)c2ccccc21 | 58.4 |
| Cn1c2nc3ccccc3c-2c(Cl)c2ccccc21 [11-CHLORONEOCRYPTOLEPINE] | 0.7 |
| Cn1c2nc3ccccc3c-2c(NCCCNS(=O)(=O)c2ccccc2)c2ccccc21 | 1 |
| Cn1c2nc3ccccc3c-2c(NCCCN2C(=O)CCSC2c2ccc(F)cc2)c2ccccc21 (configuration not stated) | 71.6 |
| Cn1c2nc3ccccc3c-2c(NCCCNC(=O)Nc2ccccc2)c2cc(F)ccc21 | 143 |
| COc1ccc2c(c1)c(NCCCNC(=O)Nc1ccccc1)c1c3ccccc3nc-1n2C | 621 |
| Cn1c2nc3ccccc3c-2c(NCCCNC(=O)Nc2ccccc2)c2cc(C(F)(F)F)ccc21 | 313 |
| Cn1c2nc3ccccc3c-2c(NCCCNC(=S)Nc2ccccc2)c2ccccc21 | 135 |
| Cn1c2nc3ccccc3c-2cc2ccccc21 [NEOCRYPTOLEPINE] | 2 |
